Assay results taken from patent US20260053812A1, “METHODS OF TREATING HYPERTENSION WITH A COMBINATION OF AN ALDOSTERONE SYNTHASE INHIBITOR AND A DIURETIC” (Mineralys Therapeutics, Inc., priority 2022, published 2026).
Several values for one entry are separate records, joined by “and”; a condition that tells them apart may be missing. Equal entries are not always repeated. Entries after “also recorded” stand apart in the source; their conditions may differ. Where two headings read alike, the source gives them in different places.

Tests used:
Format in all cases: in vivo, human
[1] = Pharmacokinetics (plasma concentration, Cmax, AUC, trough); settings: for concentration at 7 day: human, plasma, oral, Day 7, read-out: Trough plasma concentration, Geo Mean
Source text: Pharmacokinetic endpoints of this study are PK parameters, including, of area under the plasma concentration versus time curve (AUC), maximum plasma concentration (Cmax), time to maximum concentration (Tmax), and half-life (t1/2) will be summarized descriptively for Randomization (baseline) and Study Weeks 1, 4, and 8
(§1) PK/PD Analysis Set includes all subjects in the SAF who have sufficient data available for the analysis of pharmacokinetic and pharmacodynamic measurements. In the analyses based on PKPD, subjects will be analyzed according to the actual treatment received.

[2] = test system: serum cortisol; experiment: Pharmacodynamics: serum cortisol; settings: for Cortisol, mean observed: BL
Source text: as §1

[3] = Serum sodium; settings: active treatment cohorts, Parts 1 and 2
[4] = test system: 11-deoxycorticosterone; experiment: Pharmacodynamics: 11-deoxycorticosterone
Source text: as §1

[5] = test system: subjects with uncontrolled hypertension; experiment: 24-hour ambulatory blood pressure monitoring (ABPM); settings: for Proportion of subjects with nighttime dip 10-20% in 24-hour systolic ABP / Proportion of subjects with nighttime dip <10% in 24-hour systolic ABP / Proportion of subjects with nighttime dip >20% in 24-hour systolic ABP: Part 1, FAS
Method: Ambulatory blood pressure monitoring was accomplished with an ambulatory blood pressure monitoring device that consists of a blood pressure cuff worn on a subject's arm attached to a small recording device that is typically attached to the subject's belt or waistband. The ABPM device is worn for 24 hours. Throughout that period, the device records the subject's blood pressure at regular intervals, during the subject's routine daily activities and while they are sleeping. The ABPM thus provides a complete record of the subject's blood pressure over a 24-hour period. 24-hour ABPM was measured in the clinic at baseline and Study Week 7. If, for any reason, the ABPM procedure was deemed a failure at the end of Study Week 7, it may have been repeated at Study Week 8 and therefore no imputation was employed regardless of use of rescue medications. Additionally, ABPM was also collected at the end of Study Week 4 in Part 2. If a repeat test was performed, it supersedes the original test results for that visit. Specific derived variables based on ABPM measurements include mean 24-hour, mean Daytime, and mean Nighttime of SBP, DBP, and heart rate. Change from baseline to Week 7 in 24-hour mean SBP (and DBP) based on ABPM will be analyzed using an ANCOVA with a term for treatment group and a baseline mean 24-hour value as a covariate. The nighttime dip is defined as 100% x(mean daytime SBP−mean nighttime SBP)/mean daytime SBP It is expressed as a percentage and is summarized by treatment group and visit using descriptive statistics. In addition, the number and percentage of subjects with nighttime dip in each of the dipper categories (Bloomfield & Park, 2015) is presented by treatment group and visit. The categories are: • (a) <10% • (b) 10-20% inclusive • (c) >20%

[6] = test system: plasma renin activity; experiment: Pharmacodynamics: plasma renin activity (PRA); settings: for Renin Activity, mean observed: BL
Source text: as §1

[7] = steady state, Day 28, 100 mg QD Part 1

For `CC(=O)N[C@H]1CC[C@H](NC(=O)CN2CCN(c3nncc(-c4ccc(C)cc4)n3)CC2)CC1` [Compound A HBr], the “Systemic exposure expressed as Cmax or AUC” value ([1]; across doses) was “increased with increasing dose”, the concentration at 7 day ([1]; 12.5 mg, 12.5 mg BID) was 20.4 ng/mL and the concentration at 7 day ([1]; 12.5 mg, 12.5 mg QD) was 6.55 ng/mL. For the same compound, the concentration at 7 day ([1]; 25 mg, 25 mg BID) was 49.6 ng/mL, the concentration at 7 day ([1]; 50 mg, 50 mg QD) was 16.6 ng/mL and the concentration at 7 day ([1]; 100 mg, 100 mg QD Part 1) was 53.4 ng/mL. The concentration at 7 day ([1]; 100 mg, 100 mg QD Part 2) was 35.1 ng/mL, the “AUC0-24, Median” value [1, 7] was 15000 ng·h/mL and the “Cmax, Geo Mean” value [1, 7] was 1370 ng/mL. The “Cortisol, mean observed” value ([2]; Part 1, 12.5 mg BID) was 10.195 µg/dL, the “Cortisol, mean observed” value ([2]; Part 1, 12.5 mg QD) was 9.443 µg/dL and the “Cortisol, mean observed” value ([2]; Part 1, 25 mg BID) was 10.577 µg/dL. The “Cortisol, mean observed” value ([2]; Part 1, 50 mg QD) was 10.807 µg/dL, the “Cortisol, mean observed” value ([2]; Part 1, 100 mg QD) was 11.272 µg/dL and the “Serum cortisol percent change from baseline” value (from here on “Serum cortisol percent change”) ([2]; Part 1 active arms (range across doses), Week 4) was 3.8% to 19.2%. For the same compound, the “Serum cortisol percent change” value ([2]; Part 1 active arms (range across doses), Week 8) was 20.6% to 51.4%, the “Serum cortisol percent change” value ([2]; Part 1 active arms (range across doses), Week 12, listed as lorundrostat) was −1.2% to 22.7% and −1.2 to 22.6% and the “Serum cortisol percent change” value ([2]; Part 2 100 mg QD, Week 12) was 1.5%. The “Cortisol, mean observed” value ([2]; Part 2, 100 mg QD) was 11.118 µg/dL, the “Serum cortisol percent change” value ([2]; Part 2, 100 mg QD, Week 4) was 20.1% and the “Serum cortisol percent change” value ([2]; Part 2, 100 mg QD, Week 8) was 153.4%. The Adrenocortical insufficiency ([2]; during the trial, listed as lorundrostat) was “no adrenocortical insufficiency”, the “Effect on serum cortisol” value ([2]; pooled (Part 1 and Part 2) 100 mg QD safety set (n=60)) was “no effects on serum cortisol” and the “Morning serum cortisol levels” value ([2]; summary of trial) was “modestly increased”. For the same compound, the Serum sodium levels [3] was “decreased”, the “11-Deoxycorticosterone, mean observed” value ([4]; Part 1, 12.5 mg BID, Wk 12) was 8.0 ng/dL and the “11-Deoxycorticosterone, mean observed” value ([4]; Part 1, 12.5 mg QD, BL) was 8.3 ng/dL. The “11-Deoxycorticosterone, mean observed” value ([4]; Part 1, 25 mg BID, Wk 12) was 8.0 ng/dL, the “11-Deoxycorticosterone, mean observed” value ([4]; Part 1, 50 mg QD, BL) was 8.3 ng/dL and the “11-Deoxycorticosterone, mean observed” value ([4]; Part 1, 100 mg QD, Wk 12) was 8.4 ng/dL. For the same compound, the 11-deoxycorticosterone ([4]; Part 1 active treatment arms, Week 4 compared with placebo) was “Transient increases”, the “11-Deoxycorticosterone, mean observed” value ([4]; Part 2, 100 mg QD, BL) was 10.71 ng/dL and the 11-deoxycorticosterone levels ([4]; summary of trial) was “unaffected”. For the same compound, the “Proportion of subjects with nighttime dip 10-20% in 24-hour systolic ABP” value ([5]; 12.5 mg BID, EoT) was “(31.3) %”, the “Proportion of subjects with nighttime dip <10% in 24-hour systolic ABP” value ([5]; 12.5 mg BID, EoT) was “(68.8) %” and the “LSM Δ with Placebo, change from baseline in Nighttime Mean DBP (ABPM, ANCOVA)” value ([5]; 12.5 mg QD, End of Treatment, Part 1, FAS post-hoc) was −1.53 mmHg. The “Proportion of subjects with nighttime dip 10-20% in 24-hour systolic ABP” value ([5]; 12.5 mg QD, EoT) was “(35.7) %”, the “Proportion of subjects with nighttime dip <10% in 24-hour systolic ABP” value ([5]; 12.5 mg QD, EoT) was “(64.3) %” and the “Proportion of subjects with nighttime dip 10-20% in 24-hour systolic ABP” value ([5]; 25 mg BID, EoT) was “(16.7) %”. For the same compound, the “Proportion of subjects with nighttime dip <10% in 24-hour systolic ABP” value ([5]; 25 mg BID, EoT) was “(79.2) %”, the “Proportion of subjects with nighttime dip >20% in 24-hour systolic ABP” value ([5]; 25 mg BID, EoT) was “(4.2) %” and the “Proportion of subjects with nighttime dip 10-20% in 24-hour systolic ABP” value ([5]; 50 mg QD, EoT) was “(21.4) %”. The “Proportion of subjects with nighttime dip <10% in 24-hour systolic ABP” value ([5]; 50 mg QD, EoT) was “(78.6) %”, the “Proportion of subjects with nighttime dip 10-20% in 24-hour systolic ABP” value ([5]; 100 mg QD, EoT) was “(45.8) %” and the “Proportion of subjects with nighttime dip <10% in 24-hour systolic ABP” value ([5]; 100 mg QD, EoT) was “(45.8) %”. The “Proportion of subjects with nighttime dip >20% in 24-hour systolic ABP” value ([5]; 100 mg QD, EoT) was “(8.3) %”, the “Subjects with nighttime dip 10-20% in 24-hour systolic ABP” value ([5]; 100 mg QD, EoT, Part 2, FAS) was 9 n and the “Subjects with nighttime dip <10% in 24-hour systolic ABP” value ([5]; 100 mg QD, EoT, Part 2, FAS) was 18 n. For the same compound, the “Subjects with nighttime dip >20% in 24-hour systolic ABP” value ([5]; 100 mg QD, EoT, Part 2, FAS) was 0 n, the “Subjects with nighttime dip 10-20% in 24-hour systolic ABP” value ([5]; 100 mg QD, Week 4, Part 2, FAS) was 6 n and the “Subjects with nighttime dip <10% in 24-hour systolic ABP” value ([5]; 100 mg QD, Week 4, Part 2, FAS) was 18 n. For the same compound, the “Subjects with nighttime dip >20% in 24-hour systolic ABP” value ([5]; 100 mg QD, Week 4, Part 2, FAS) was 1 n, the “Renin Activity, mean observed” value ([6]; Part 1, 12.5 mg BID) was 1.299 µg/L/h and the “Renin Activity, mean observed” value ([6]; Part 1, 12.5 mg QD) was 0.950 µg/L/h. For the same compound, the “Renin Activity, mean observed” value ([6]; Part 1, 25 mg BID) was 1.104 µg/L/h, the “Renin Activity, mean observed” value ([6]; Part 1, 50 mg QD) was 1.258 µg/L/h and the “Renin Activity, mean observed” value ([6]; Part 1, 100 mg QD) was 0.956 µg/L/h. The “Renin Activity, mean observed” value ([6]; Part 2, 100 mg QD) was 5.417 µg/L/h and the Plasma renin activity ([6]; pharmacodynamic response, all doses, listed as lorundrostat) was “commensurate increase; also recorded: increased in all subjects treated with lorundrostat”.
